# According to patent US4444776A, “Dipyrido (4,3-B) (3,4-F) indoles, process for obtaining them, therapeutical use and pharmaceutical compositions” (priority 1977, dated 1984):
# Experiments:
# L 1210 leukemia [1] = assay: Test 10: comparison of antitumoral activity with known products, L 1210 (Tables V-VII); format: in vivo, mouse; conditions: J+3
# Description: Test 10: Comparison of the antitumoral activity of the compound according to example 7 with that of known products
# The compound of example 7, i.e. 1-(γ-diethylaminopropyl)amino-5-methyl-dipyrido-[4,3-b][3,4-f] indole or known compounds were injected into L 1210 leukemic mice 1 or 3 days after the inoculation of the cells at the doses indicated in tables V to VII and the mean survival time (MST) and the precentage of increased life span (ILS %) were measured.
# Indications concerned the known products used in this example and particularly their antitumoral properties, their secondary effects and their use in man may be found in "La Chimiotherapie des Cancers", by G. MATHE and M. KENIS Expansion Scientifique Francaise, 3rd edition, Paris 1975.
# [2] = tested on: tumoral strain derived from the murine leukemia due to the C. FRIEND virus; assay: Test 7: antitumoral activity in vitro on Friend leukemia tumoral strain; format: cell-based; conditions: HUM = 1
# Description: Test 7: Study of the antitumoral activity in vitro
# This activity was measured on a tumoral strain derived from the murine leukemia due to the C. FRIEND virus.
# The tumoral cells multiply in suspension in a "RPMI 1640" medium (Catalogue of GIBCO Bio-cult. Ltd. Washington Road, Sandyford Industrial Estate, PAISLEY PA 3 4EP, Renfrewshire, Scotland) supplemented with 20% of embryonary calf serum, penicillin and streptomycine. The duplication time of these cells is 11 hours. The growth fraction is equal to 1 or very close to 1 (all the cells are in the cycle). The cultures are sub-culturedat time t=0 at the concentration of 2.10^5 cells per ml in Falcon dishes containing 4 ml of medium. After twenty four hours, the product to be tested was added, i.e. at a moment when the cultures are in exponential phase of growth. Twenty four hours after the addition of the product, the cells are counted and the percentage of living cells determined by an exclusion test using "trypan" blue.
# mice = assay: Test 21: toxicity after intraperitoneal injection
# Description: All drugs were dissolved in aqueous solutions adjusted at pH 5 with acetic acid and inoculated to the mice under a volume of 0.1 ml I.P. after dilution in Mac Coy's medium.
# The toxicity of the drugs after intraperitoneal injection was estimated from the mortality rate up to the 30th day.
# L1210 leukemia = assay: Test 17: length of substituting chain, L1210 (Table XIII); format: in vivo, mouse
# Description: Test 17: Relationship between the length of the substituting chain and the activity.
# However compound 21 is less toxic (50 mg/kg for compound 21 and 25 mg/kg for compound 23), it has a higher ILS% than compound 23 and 1 mouse survived up to 60 days.
# L 1210 leukemia [3] = assay: Test 1: antitumoral properties on L 1210 leukemia (Table I); format: in vivo, mouse; conditions: 0,1 mg/mouse
# Description: The lower animal antitumoral properties of the compounds according to the invention have been determined by their curative action on inoculated test L-1210 leukemia. [ZUBROD C. G., Proc. Nat. Acad. Sci. 1972, 69, 1042-1047 and SCHEPARTZ SA. SCREENING, 1971, CANCER Chemother. Rep. Part 3 vol.2 p.3].
# This leukemia is maintained in ascitic form by passage (i.p. route) on CBDl (C57 B16×DBA/2)F1 mice. The preparation to be tested are injected by the intraperitoneal route at least one day after the inoculation of the cells (one injection only). The results are expressed in increased life span per cent (ILS %) according to KESSEL et al. Cancer Res. 1971, 31, 1883-1887) or in percentage of the number of cells killed by the product (the survival of the animals is proportional to the number of cells injected).
# The following tests were made in groups of 10 mice, unless stipulated to the contrary.
# Test 1: Study of the antitumoral properties of the compounds of the invention on L 1210 leukemia
# The lower animal antitumoral properties of the compounds according to the invention were determined by their curative action on test inoculated L 1210 leukemia.
# This leukemia was maintained on CBD 1 (C 57 B 16×DBA/2) F1 mice. The compounds to be tested were injected by the IP route one or more days after the inoculation of the cells (single injection). The results obtained, shown in table I hereinafter, are expressed in percentage of increase of life span (ILS %) and in percentage of the number of cells killed by the compound to be tested, the survival of the animals being proportional to the number of cells injected.
# The percentage of the like span ILS % (Cancer. Res. 1971, 31, 1883-1887) is the following ratio: [formula] S^t =survival of the treated animals S^c =survival of the control animals
# leukemic cells = assay: Test 20: combination of compound 21 with other drugs (Table XV); conditions: 10^5 cells, BD 40 20 mg/kg day +4, Endoxan 100 mg/kg day +3
# Description: A priming dose of endoxan (100 mg/kg) was given 3 days after 10^5 leukemic cells (20 mice).
# [4] = Table VII, 10^5 cells, example 7 0.2 mg/mouse, ON COVIN 0.5 μg/mouse
# [5] = Table V, 10^4 cells, doses mg/mouse: example 7 0.2, Thiotepa 0.1, Mitomycine 0.016, BCNU 0.1, Methotrexate 0.250
# [6] = Table V, 10^4 cells, mg/mouse: example 7 0.2, Thiotepa 0.1, Mitomycine 0.016, BCNU 0.1, Methotrexate 0.250, Endoxan 4
# [7] = Table VI, 10^5 cells, mg/mouse: Thiotepa 0.1, Mitomycine C 0.016, BCNU 0.1, Methotrexate 0.250, example 7 0.2, Endoxan 4
compound,measurement,setting,value
CC[C@]1(O)C[C@H]2CN(CCc3c([nH]c4ccccc34)[C@@](C(=O)OC)(c3cc4c(cc3OC)N(C=O)[C@H]3[C@@](O)(C(=O)OC)[C@H](OC(C)=O)[C@]5(CC)C=CCN6CC[C@]43[C@@H]65)C2)C1 [ON COVIN],ILS %,L 1210 leukemia [1]; [4],3.85%
same,MTS (mean survival time),L 1210 leukemia [1]; [4],10.8
same,Range of death,L 1210 leukemia [1]; [4],10-13
O=NN(CCCl)C(=O)NCCCl [BCNU],ILS %,L 1210 leukemia [1]; [5],0.9%
same,MTS (mean survival time),L 1210 leukemia [1]; [5],11.1
same,Range of death,L 1210 leukemia [1]; [6],10 to 12 days
same,ILS %,L 1210 leukemia [1]; [7],0%
same,MTS (mean survival time),L 1210 leukemia [1]; [7],8.8
same,Range of death,L 1210 leukemia [1]; [7],8-9
"Cc1c2cc[nH]c(=O)c2cc2c1[nH]c1ccncc12 [Example 5, 1,2-dihydro-1-oxo 5-methyl-dipyrido-[4,3-b][3,4-f] indole]",Activity (ratio of the LD50 of HUM to the LD50 of the product tested),[2],0.15
"Cc1c2ccnc(NCCN(C)C)c2cc2c1[nH]c1ccncc12 [Example 9, 1-(β-dimethylaminoethyl)amino-5-methyl-dipyrido-[4,3-b][3,4-f] indole]",time of deaths after drug administration,mice; IP,4 to 6 days
same,toxicity (toxic dose),"mice; mouse, in vivo",25 mg/kg
same,minimal quantity resulting in 100% deaths,"mice; mouse, in vivo, ip, 43200 min",25 mg/kg
same,activity against L1210 leukemia (in words),L1210 leukemia; Table XIII summary,active against L1210 leukemia
same,ILS %,L1210 leukemia; day +1,65.2%
same,Survivors up to 60 days,L1210 leukemia; day +1,0
same,MST,"L1210 leukemia; day +1, control MST 8.8",14.6
same,Range of death,"L1210 leukemia; day +1, control MST 8.8",11-18
"Cc1c2ccnc(Cl)c2cc2c1[nH]c1ccncc12 [Example 6, 1-chloro-5-methyl-dipyrido [4,3-b][3,4-f] indole]",Activity (ratio of the LD50 of HUM to the LD50 of the product tested),[2],0.3
same,toxicity in L 1210 test,L 1210 leukemia [3],toxic
same,ILS % (difference with the controls),L 1210 leukemia [3]; 10^4 and 10^3 cells,no difference
O=P1(N(CCCl)CCCl)NCCCO1 (centres unmarked) [Endoxan],mice alive on 30th day (of 10),"L 1210 leukemia [1]; Table V, 10^4 cells, Endoxan 4 mg/mouse",3
same,Range of death,L 1210 leukemia [1]; [6],13 days
same,ILS %,L 1210 leukemia [1]; [7],105.30%
same,MTS (mean survival time),L 1210 leukemia [1]; [7],18.6
same,Range of death,L 1210 leukemia [1]; [7],15-21
same,ILS %,leukemic cells; BCNU 2 mg/kg,16.9%
same,Range of death,leukemic cells; BCNU 2 mg/kg immediately after endoxan,11-17
same,MST,"leukemic cells; BCNU 2 mg/kg, control 11.2",13.1
